According to US4468383A, “Dimeric enkephalins” (The United States of America as represented by the …, priority 1982, dated 1984):

Test system: NG108-15 cells (a neuroblastoma-glioma hybrid cell line)
Assay: In vitro bioassay in NG108-15 cells stimulated by prostaglandin E1
Assay type: cell-based
Conditions: read-out: IC50 in NG108-15 cells stimulated by PGE1

Question: How did the IC50 turn out when `CC(C)C[C@H](NC(=O)[C@H](Cc1ccccc1)NC(=O)CNC(=O)[C@@H](C)NC(=O)[C@@H](N)Cc1ccc(O)cc1)C(=O)NCCNC(=O)[C@H](CC(C)C)NC(=O)[C@H](Cc1ccccc1)NC(=O)CNC(=O)[C@@H](C)NC(=O)[C@@H](N)Cc1ccc(O)cc1` [DPE2] was run?
Answer: The IC50 was roughly 0.15 nM.
